Assay results taken from patent US20170190671A1, “BIS(ARYL)CATECHOL DERIVATIVES AS HERBICIDES” (E I DU PONT DE NEMOURS AND COMPANY, priority 2014, published 2017).

How the values were obtained:
Assay type in all cases: in vivo
Conditions in all cases: scale 0 to 100
[1] = system: Surinam grass (Brachiaria decumbens); assay: Test E preemergence
How it was run: (§1)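 Preemergence: seeds in silt loam treated with compound in non-phytotoxic solvent with surfactant. Postemergence: plants at 1- to 4-leaf stage (2–18 cm) in peat-based medium sprayed likewise. Greenhouse 14–21 days, then visual rating vs controls, 0 (no effect) to 100 (complete control).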

[2] = system: field bindweed (Convolvulus arvensis); assay: Test E preemergence
How it was run: as §1

[3] = system: horseweed (Conyza canadensis); assay: Test E preemergence
How it was run: as §1

[4] = system: kochia (Kochia scoparia); assay: Test E preemergence
How it was run: as §1

[5] = system: palmer pigweed (Amaranthus palmeri); assay: Test E preemergence
How it was run: as §1

[6] = system: wild poinsettia (Euphorbia heterophylla); assay: Test E preemergence
How it was run: as §1

[7] = system: johnsongrass (Sorghum halepense); assay: Test E preemergence
How it was run: as §1

[8] = system: Brazilian crabgrass (Digitaria horizontalis); assay: Test E postemergence
Text: (§2) Seeds of plant species selected from corn (Zea mays), soybean (Glycine max), velvetleaf (Abutilon theophrasti), cocklebur (common cocklebur, Xanthium strumarium), lambsquarters (Chenopodium album), wild poinsettia (Euphorbia heterophylla), palmer pigweed (Amaranthus palmeri), waterhemp (common waterhemp, Amaranthus rudis), surinam grass (Brachiaria decumbens), large (Lg) crabgrass (Digitaria sanguinalis), Brazilian crabgrass (Digitaria horizontalis), fall panicum (Panicum dichotomiflorum), giant foxtail (Setaria faberii), green foxtail (Setaria viridis), goosegrass (Eleusine indica), johnsongrass (Sorghum halepense), ragweed (common ragweed, Ambrosia elatior), barnyardgrass (Echinochloa crus-galli), sandbur (southern sandbur, Cenchrus echinatus), arrowleaf sida (Sida rhombifolia), Italian ryegrass (Lolium multiflorum), dayflower (Virginia (VA) dayflower, Commelina virginica), field bindweed (Convolvulus arvensis), morningglory (Ipomoea coccinea), nightshade (eastern black nightshade, Solanum ptycanthum), kochia (Kochia scoparia), yellow nutsedge (Cyperus esculentus), horseweed (Conyza canadensis), and hairy beggarticks (Bidens pilosa), were planted into a silt loam soil and treated preemergence with test chemicals formulated in a non-phytotoxic solvent mixture which included a surfactant.
(§3) At the same time, plants from these crop and weed species and also waterhemp_RES1, (ALS & Triazine resistant common waterhemp, Amaranthus rudis), and waterhemp_RES2, (ALS & HPPD resistant common waterhemp, Amaranthus rudis) were planted in pots containing Redi-Earth® planting medium (Scotts Company, 14111 Scottslawn Road, Marysville, Ohio 43041) comprising spaghnum peat moss, vermiculite, wetting agent and starter nutrients were treated with postemergence applications of test chemicals formulated in the same manner. Plants ranged in height from 2 to 18 cm for postemergence treatments (1- to 4-leaf stage). Treated plants and controls were maintained in a greenhouse for 14 to 21 days, after which time all species were compared to controls and visually evaluated. Plant response ratings, summarized in Table E, are based on a scale of 0 to 100 where 0 is no effect and 100 is complete control. A dash (-) response means no test result.

[9] = system: dayflower (Virginia (VA) dayflower, Commelina virginica); assay: Test E postemergence
Text: as §2, §3

[10] = system: field bindweed (Convolvulus arvensis); assay: Test E postemergence
Text: as §2, §3

[11] = system: hairy beggarticks (Bidens pilosa); assay: Test E postemergence
Text: as §2, §3

[12] = system: waterhemp_RES1 (ALS & Triazine resistant common waterhemp, Amaranthus rudis); assay: Test E postemergence
Text: as §2, §3

[13] = system: wild poinsettia (Euphorbia heterophylla); assay: Test E postemergence
Text: as §2, §3

Compound: Fc1ccc(F)c(Oc2ncc(Cl)cn2)c1Oc1ncc(Cl)cn1 [Compound 34, 2,2′-[(3,6-difluoro-1,2-phenylene)bis(oxy)]bis[5-chloropyrimidine]]
- Plant response rating, Surinam Grass ([1]; 16 g ai/ha): 0
- Plant response rating, Surinam Grass ([1]; 31 g ai/ha): 0
- Plant response rating, Surinam Grass ([1]; 125 g ai/ha): 10
- Plant response rating, Field Bindweed ([2]; 16 g ai/ha): 0
- Plant response rating, Field Bindweed ([2]; 31 g ai/ha): 0
- Plant response rating, Field Bindweed ([2]; 62 g ai/ha): 0
- Plant response rating, Field Bindweed ([2]; 125 g ai/ha): 0
- Plant response rating, Horseweed ([3]; 16 g ai/ha): 0
- Plant response rating, Horseweed ([3]; 31 g ai/ha): 0
- Plant response rating, Horseweed ([3]; 62 g ai/ha): 0
- Plant response rating, Horseweed ([3]; 125 g ai/ha): 0
- Plant response rating, Kochia ([4]; 16 g ai/ha): 0
- Plant response rating, Kochia ([4]; 31 g ai/ha): 95
- Plant response rating, Kochia ([4]; 62 g ai/ha): 100
- Plant response rating, Kochia ([4]; 125 g ai/ha): 100
- Plant response rating, Pigweed, Palmer ([5]; 16 g ai/ha): 0
- Plant response rating, Pigweed, Palmer ([5]; 31 g ai/ha): 50
- Plant response rating, Pigweed, Palmer ([5]; 62 g ai/ha): 70
- Plant response rating, Pigweed, Palmer ([5]; 125 g ai/ha): 100
- Plant response rating, Poinsettia, Wild ([6]; 16 g ai/ha): 0
- Plant response rating, Poinsettia, Wild ([6]; 31 g ai/ha): 10
- Plant response rating, Poinsettia, Wild ([6]; 62 g ai/ha): 20
- Plant response rating, Poinsettia, Wild ([6]; 125 g ai/ha): 50

Compound: N#Cc1cccc(Oc2ncc(Cl)cn2)c1Oc1ncc(C(F)(F)F)cn1 [Compound 38, 3-[(5-chloro-2-pyrimidinyl)oxy]-2-[[5-(trifluoromethyl)-2-pyrimidinyl]oxy]-benzonitrile]
- Plant response rating, Surinam Grass ([1]; 16 g ai/ha): 0
- Plant response rating, Surinam Grass ([1]; 31 g ai/ha): 0
- Plant response rating, Surinam Grass ([1]; 62 g ai/ha): 15
- Plant response rating, Surinam Grass ([1]; 125 g ai/ha): 40
- Plant response rating, Field Bindweed ([2]; 16 g ai/ha): 35
- Plant response rating, Field Bindweed ([2]; 31 g ai/ha): 70
- Plant response rating, Field Bindweed ([2]; 62 g ai/ha): 95
- Plant response rating, Field Bindweed ([2]; 125 g ai/ha): 65
- Plant response rating, Horseweed ([3]; 16 g ai/ha): 0
- Plant response rating, Horseweed ([3]; 31 g ai/ha): 0
- Plant response rating, Horseweed ([3]; 62 g ai/ha): 100
- Plant response rating, Horseweed ([3]; 125 g ai/ha): 98
- Plant response rating, Johnsongrass ([7]; 16 g ai/ha): 0
- Plant response rating, Johnsongrass ([7]; 31 g ai/ha): 0
- Plant response rating, Johnsongrass ([7]; 62 g ai/ha): 100
- Plant response rating, Johnsongrass ([7]; 125 g ai/ha): 95
- Plant response rating, Kochia ([4]; 16 g ai/ha): 80
- Plant response rating, Kochia ([4]; 31 g ai/ha): 98
- Plant response rating, Kochia ([4]; 62 g ai/ha): 100
- Plant response rating, Kochia ([4]; 125 g ai/ha): 100
- Plant response rating, Pigweed, Palmer ([5]; 16 g ai/ha): 60
- Plant response rating, Pigweed, Palmer ([5]; 31 g ai/ha): 100
- Plant response rating, Pigweed, Palmer ([5]; 62 g ai/ha): 98
- Plant response rating, Pigweed, Palmer ([5]; 125 g ai/ha): 100
- Plant response rating, Crabgrass, Brazil ([8]; 16 g ai/ha): 10
- Plant response rating, Crabgrass, Brazil ([8]; 31 g ai/ha): 15
- Plant response rating, Crabgrass, Brazil ([8]; 62 g ai/ha): 20
- Plant response rating, Crabgrass, Brazil ([8]; 125 g ai/ha): 20
- Plant response rating, Dayflower, VA ([9]; 16 g ai/ha): 40
- Plant response rating, Dayflower, VA ([9]; 31 g ai/ha): 50
- Plant response rating, Dayflower, VA ([9]; 62 g ai/ha): 60
- Plant response rating, Dayflower, VA ([9]; 125 g ai/ha): 60
- Plant response rating, Field Bindweed ([10]; 16 g ai/ha): 60
- Plant response rating, Field Bindweed ([10]; 31 g ai/ha): 65
- Plant response rating, Field Bindweed ([10]; 62 g ai/ha): 80
- Plant response rating, Field Bindweed ([10]; 125 g ai/ha): 85
- Plant response rating, Beggarticks ([11]; 16 g ai/ha): 35
- Plant response rating, Beggarticks ([11]; 31 g ai/ha): 40
- Plant response rating, Beggarticks ([11]; 62 g ai/ha): 40
- Plant response rating, Beggarticks ([11]; 125 g ai/ha): 50
- Plant response rating, Waterhemp_RES1 ([12]; 16 g ai/ha): 80
- Plant response rating, Waterhemp_RES1 ([12]; 31 g ai/ha): 90
- Plant response rating, Waterhemp_RES1 ([12]; 62 g ai/ha): 90
- Plant response rating, Waterhemp_RES1 ([12]; 125 g ai/ha): 95

Compound: Fc1cccc(Oc2ncc(Cl)cn2)c1Oc1ncc(C(F)(F)F)cn1 [Compound 43, 5-chloro-2-[5-fluoro-6-[[5-(trifluoromethyl)-2-pyrimidinyl]oxy]phenoxy]pyrimidine]
- Plant response rating, Surinam Grass ([1]; 31 g ai/ha): 25
- Plant response rating, Surinam Grass ([1]; 125 g ai/ha): 80
- Plant response rating, Field Bindweed ([2]; 31 g ai/ha): 20
- Plant response rating, Field Bindweed ([2]; 125 g ai/ha): 50
- Plant response rating, Johnsongrass ([7]; 31 g ai/ha): 90
- Plant response rating, Johnsongrass ([7]; 125 g ai/ha): 100
- Plant response rating, Kochia ([4]; 31 g ai/ha): 98
- Plant response rating, Kochia ([4]; 125 g ai/ha): 100
- Plant response rating, Pigweed, Palmer ([5]; 31 g ai/ha): 75
- Plant response rating, Pigweed, Palmer ([5]; 125 g ai/ha): 90
- Plant response rating, Poinsettia, Wild ([6]; 31 g ai/ha): 65
- Plant response rating, Poinsettia, Wild ([6]; 125 g ai/ha): 100
- Plant response rating, Crabgrass, Brazil ([8]; 31 g ai/ha): 25
- Plant response rating, Crabgrass, Brazil ([8]; 125 g ai/ha): 40
- Plant response rating, Dayflower, VA ([9]; 31 g ai/ha): 50
- Plant response rating, Dayflower, VA ([9]; 125 g ai/ha): 70
- Plant response rating, Field Bindweed ([10]; 31 g ai/ha): 55
- Plant response rating, Field Bindweed ([10]; 125 g ai/ha): 70
- Plant response rating, Beggarticks ([11]; 31 g ai/ha): 50
- Plant response rating, Beggarticks ([11]; 125 g ai/ha): 60
- Plant response rating, Waterhemp_RES1 ([12]; 31 g ai/ha): 65
- Plant response rating, Waterhemp_RES1 ([12]; 125 g ai/ha): 80
- Plant response rating, Poinsettia, Wild ([13]; 31 g ai/ha): 60
- Plant response rating, Poinsettia, Wild ([13]; 125 g ai/ha): 75
